Test results as given in patent publication US20090062190A1, “Transcriptional Regulation of Cytokines by LITAF and STAT (6)(B)” (priority 2005, published 2009).

System: translocation of STAT6(B) and LITAF in mouse macrophages
Assay: Western blot after kinase inhibitor pretreatment plus LPS stimulation (FIG. 13)
Type: cell-based
Details: pretreatment before LPS stimulation
Description: It is well known that STAT family members share two major domains, oligomerization and Src homology 2 (SH2), for phosphorylation by Janis kinases (Jaks) that facilitate dimerization of STAT proteins and subsequent translocation into the nucleus (Gallmeier, et al., J Cell Physiol, 203:209-216, 2005; Chen, et al., J Allergy Clin Immunol, 114:476-489, 2004, Tang, et al., PNAS USA, 102:5132-5137, 2005). […] In this Western blot, cells were pretreated with various kinase inhibitors (FIG. 13a) before LPS stimulation.

In the case of `C[S+]([O-])c1ccc(-c2nc(-c3ccncc3)c(-c3ccc(F)cc3)[nH]2)cc1` (stereo not drawn) [SB203580], the “TNF-α protein levels compared to cells exposed to LPS only” value is reported as “suppression”, the “LITAF and STAT6(B) expression in the nucleus” value (Western blot) is reported as “substantially reduced” and the “whole cell extract LITAF and STAT6(B) expression” value (Western blot) is reported as “unchanged”.
